Data from article PMC7544095, “Human ABCB1 with an ABCB11-like degenerate nucleotide binding site maintains transport activity by avoiding nucleotide occlusion” (PLoS Genetics, 2020).
Where two headings read alike, the source gives them in different places. One block for each compound: values may come before it.

How the values were obtained:
[1] = biological target: T1, ABCB1 quadruple mutant (S474E, E556M, G1178R, Q1180E) (Homo sapiens, UniProt P08183, E556M/G1178R/Q1180E/S474E); experiment: Hoechst 33342 and calcein-AM accumulation assay in NIH 3T3 cells (transport activity factor); type: cell-based
T1 construct: expressed in transfected cells
T1 sequence (P08183 whole entry S474E/E556M/G1178R/Q1180E): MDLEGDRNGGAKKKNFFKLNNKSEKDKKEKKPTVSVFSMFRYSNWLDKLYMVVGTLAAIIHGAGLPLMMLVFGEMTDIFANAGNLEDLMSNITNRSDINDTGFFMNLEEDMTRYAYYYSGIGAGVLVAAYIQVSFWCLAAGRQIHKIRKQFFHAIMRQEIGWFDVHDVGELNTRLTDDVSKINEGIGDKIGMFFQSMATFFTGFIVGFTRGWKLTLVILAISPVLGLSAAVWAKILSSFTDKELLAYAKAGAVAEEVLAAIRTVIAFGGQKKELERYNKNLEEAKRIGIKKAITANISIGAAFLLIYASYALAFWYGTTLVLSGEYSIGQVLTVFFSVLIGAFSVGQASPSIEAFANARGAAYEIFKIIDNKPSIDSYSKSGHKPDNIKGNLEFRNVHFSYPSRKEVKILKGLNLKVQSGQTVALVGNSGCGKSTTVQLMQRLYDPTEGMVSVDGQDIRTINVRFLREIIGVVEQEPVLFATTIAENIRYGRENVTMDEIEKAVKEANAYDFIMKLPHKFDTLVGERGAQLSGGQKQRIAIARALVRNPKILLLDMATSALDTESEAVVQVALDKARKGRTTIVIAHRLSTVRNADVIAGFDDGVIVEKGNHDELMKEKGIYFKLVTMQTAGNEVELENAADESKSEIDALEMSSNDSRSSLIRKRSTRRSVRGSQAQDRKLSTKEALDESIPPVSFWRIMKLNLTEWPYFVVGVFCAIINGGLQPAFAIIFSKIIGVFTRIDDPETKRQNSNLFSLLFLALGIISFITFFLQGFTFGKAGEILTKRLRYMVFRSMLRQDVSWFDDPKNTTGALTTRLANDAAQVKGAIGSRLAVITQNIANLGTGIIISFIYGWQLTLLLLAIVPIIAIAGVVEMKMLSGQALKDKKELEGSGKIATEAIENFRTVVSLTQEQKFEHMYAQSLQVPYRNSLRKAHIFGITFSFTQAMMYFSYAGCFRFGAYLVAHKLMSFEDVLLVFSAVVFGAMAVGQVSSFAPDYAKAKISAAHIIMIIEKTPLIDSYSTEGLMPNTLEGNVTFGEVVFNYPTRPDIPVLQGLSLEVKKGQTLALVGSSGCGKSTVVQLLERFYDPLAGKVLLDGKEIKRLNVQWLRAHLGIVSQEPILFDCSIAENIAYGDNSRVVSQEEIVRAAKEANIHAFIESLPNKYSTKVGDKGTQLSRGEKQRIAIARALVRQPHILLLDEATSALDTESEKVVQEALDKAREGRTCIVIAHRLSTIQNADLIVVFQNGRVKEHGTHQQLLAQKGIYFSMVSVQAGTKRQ
Description: (§1) For measurement of the transport activity of the mutant ABCB1 variants a cell based Hoechst 33342 and calcein-AM accumulation assay was used. Cells (5 × 10^5 ml^-1) in gl-HEPES (20 mM HEPES, 123 mM NaCl, 5 mM KCl, 1.5 mM MgCl2, 1 mM CaCl2, 7 mM glucose) for Hoechst 33342 assay or in gl-PBS for calcein-AM assay were pre-incubated in the presence or absence of specific ABCB1 inhibitor (tariquidar (1 μM)) for 10 min at 37°C and then were loaded with different concentrations of Hoechst 33342 (5.0, 1.0, 0.5, 0.1 and 0.025 μM) and calcein-AM (0.5, 0.25, 0.1, 0.05 and 0.025 μM) for 30 min. The samples were washed with ice-cold HEPES or PBS buffer containing 0.5% FBS at 300 × g for 5 min and were kept on ice until flow cytometric measurement. Dead cells were excluded from the analysis on the basis of PI staining. The transport activity of the ABCB1 variants was described by the Transport Activity Factor (TAF) calculated according to the following formula: TAF = (MFinh−MFI0)/MFIinh, wherein MFIinh and MFI0 are the mean fluorescence intensity values measured in the presence and absence of ABCB1 inhibitor, respectively.
(§2) Intracellular Hoechst 33342 and calcein accumulation was measured using a Becton Dickinson FACSAria III Cell Sorter (Becton Dickinson, Mountain View, CA, USA). Hoechst 33342 was excited with a 365 nm UV laser and the emitted blue light was detected using a 445/40 band pass filter. Calcein was excited with a 488 nm blue laser and fluorescence was detected using a 502 long pass dichroic mirror and a 530/20 band pass filter. PI was excited by the 562 nm line of a solid-state laser and the emitted light was detected applying a 590 nm dichroic mirror and a 595/50 nm band-pass filter.

[2] = biological target: T2, ABCB1 E556M (catalytic glutamate mutant) (Homo sapiens, UniProt P08183, E556M); experiment: as above; type: cell-based
T2 construct: expressed in transfected cells
T2 sequence (P08183 whole entry E556M): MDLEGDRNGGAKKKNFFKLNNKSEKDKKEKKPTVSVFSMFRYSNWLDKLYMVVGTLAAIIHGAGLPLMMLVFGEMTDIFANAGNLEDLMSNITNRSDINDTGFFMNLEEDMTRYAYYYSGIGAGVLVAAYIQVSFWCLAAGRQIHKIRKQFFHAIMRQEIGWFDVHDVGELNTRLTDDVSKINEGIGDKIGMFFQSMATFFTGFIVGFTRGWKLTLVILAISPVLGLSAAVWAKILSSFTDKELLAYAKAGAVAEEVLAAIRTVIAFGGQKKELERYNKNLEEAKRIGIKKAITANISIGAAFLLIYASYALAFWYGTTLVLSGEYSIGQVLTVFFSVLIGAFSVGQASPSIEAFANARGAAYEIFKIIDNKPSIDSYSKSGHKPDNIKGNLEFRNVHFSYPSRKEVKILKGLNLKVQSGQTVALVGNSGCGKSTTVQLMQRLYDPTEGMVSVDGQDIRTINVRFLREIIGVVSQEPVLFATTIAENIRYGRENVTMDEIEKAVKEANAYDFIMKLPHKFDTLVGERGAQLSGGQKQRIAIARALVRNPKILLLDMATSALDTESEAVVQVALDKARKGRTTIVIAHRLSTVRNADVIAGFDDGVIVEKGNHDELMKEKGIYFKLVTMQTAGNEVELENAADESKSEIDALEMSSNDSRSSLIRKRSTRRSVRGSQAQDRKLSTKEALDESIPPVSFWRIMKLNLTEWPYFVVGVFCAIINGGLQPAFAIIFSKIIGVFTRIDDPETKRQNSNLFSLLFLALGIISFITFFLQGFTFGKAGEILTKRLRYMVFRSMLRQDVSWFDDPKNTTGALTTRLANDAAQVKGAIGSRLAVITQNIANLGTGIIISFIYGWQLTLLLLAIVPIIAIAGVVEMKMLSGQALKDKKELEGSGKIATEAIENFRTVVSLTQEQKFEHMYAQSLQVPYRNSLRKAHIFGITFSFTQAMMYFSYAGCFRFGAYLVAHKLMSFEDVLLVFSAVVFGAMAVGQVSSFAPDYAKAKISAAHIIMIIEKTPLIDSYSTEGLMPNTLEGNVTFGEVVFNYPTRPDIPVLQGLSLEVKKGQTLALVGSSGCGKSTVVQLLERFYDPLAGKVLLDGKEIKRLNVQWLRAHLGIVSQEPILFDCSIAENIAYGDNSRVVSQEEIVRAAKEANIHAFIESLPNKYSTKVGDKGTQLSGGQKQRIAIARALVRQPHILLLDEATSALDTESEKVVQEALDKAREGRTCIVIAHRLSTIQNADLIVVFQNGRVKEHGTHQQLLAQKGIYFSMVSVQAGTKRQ
Description: as §1, §2

wild-type ABCB1 [3] = biological target: T3, wild-type ABCB1 (Homo sapiens, UniProt P08183); experiment: MgATP dependent UIC2 binding in permeabilized NIH 3T3 cells (apparent nucleotide affinity); type: cell-based
T3 construct: expressed in transfected cells
T3 sequence (P08183 whole entry): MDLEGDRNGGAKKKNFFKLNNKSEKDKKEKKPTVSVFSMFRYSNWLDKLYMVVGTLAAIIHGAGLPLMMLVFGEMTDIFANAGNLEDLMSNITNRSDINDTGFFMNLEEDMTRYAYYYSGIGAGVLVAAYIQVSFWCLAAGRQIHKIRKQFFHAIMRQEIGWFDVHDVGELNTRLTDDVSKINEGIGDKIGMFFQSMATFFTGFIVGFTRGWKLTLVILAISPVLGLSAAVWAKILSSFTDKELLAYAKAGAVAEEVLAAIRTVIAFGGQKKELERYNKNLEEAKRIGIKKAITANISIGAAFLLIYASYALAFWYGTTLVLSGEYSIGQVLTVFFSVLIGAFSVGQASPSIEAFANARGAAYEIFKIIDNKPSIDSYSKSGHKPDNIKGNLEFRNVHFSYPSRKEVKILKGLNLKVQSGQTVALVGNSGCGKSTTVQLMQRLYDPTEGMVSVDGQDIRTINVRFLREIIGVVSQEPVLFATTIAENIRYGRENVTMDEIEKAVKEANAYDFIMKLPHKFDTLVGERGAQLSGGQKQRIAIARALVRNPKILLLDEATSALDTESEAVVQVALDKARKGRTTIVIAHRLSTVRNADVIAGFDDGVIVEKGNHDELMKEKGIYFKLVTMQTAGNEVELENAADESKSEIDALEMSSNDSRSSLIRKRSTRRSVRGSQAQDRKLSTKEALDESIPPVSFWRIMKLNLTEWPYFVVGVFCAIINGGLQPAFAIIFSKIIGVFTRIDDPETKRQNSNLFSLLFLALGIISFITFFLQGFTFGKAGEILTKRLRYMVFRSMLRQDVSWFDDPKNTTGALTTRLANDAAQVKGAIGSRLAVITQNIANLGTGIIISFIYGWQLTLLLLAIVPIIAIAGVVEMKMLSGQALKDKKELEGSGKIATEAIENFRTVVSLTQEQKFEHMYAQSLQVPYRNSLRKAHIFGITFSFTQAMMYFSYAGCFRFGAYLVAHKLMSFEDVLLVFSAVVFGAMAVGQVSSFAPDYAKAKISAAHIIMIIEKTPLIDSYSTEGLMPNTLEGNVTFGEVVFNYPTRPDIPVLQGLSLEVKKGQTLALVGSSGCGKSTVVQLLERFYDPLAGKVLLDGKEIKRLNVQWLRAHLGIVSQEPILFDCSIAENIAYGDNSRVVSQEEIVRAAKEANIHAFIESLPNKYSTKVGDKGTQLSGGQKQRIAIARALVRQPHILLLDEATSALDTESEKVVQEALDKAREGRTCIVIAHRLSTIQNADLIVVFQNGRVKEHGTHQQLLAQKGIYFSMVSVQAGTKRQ
Description: (§3) NIH 3T3 cells (1 × 10^7 cells/ml) were treated with 300 U/ml streptolysin O (SLO, Sigma-Aldrich, Budapest) in the presence of 10 mM DL-Dithiothreitol (DTT), protease inhibitor cocktail (Sigma-Aldrich, Budapest, Hungary) and 100 μg/ml phenylmethanesulfonyl fluoride (PMSF) in phosphate-buffered saline (PBS) containing 1% fetal bovine serum (FBS-PBS) at 37°C for 30 min, allowing permeabilization of approximately 60–80% of the cells (judged by propidium iodide (PI) staining). The reaction was stopped with 10 ml ice-cold FBS-PBS and the cells were centrifuged for 5 min at 525 × g at 4°C. Unbound toxin was removed by washing the cells 3 times with FBS-PBS and the cell pellet was re-suspended in FBS-PBS.
(§4) Apparent affinity of nucleotide binding (KA) was determined as it is described in Barsony et al.. Briefly, MgATP was added in a broad concentration range to permeabilized cells (1 × 10^6 cells/ml) in the presence or absence of 0.5 mM vanadate (Vi) for 30 min at 37°C. Then the samples (without washing) were further incubated with 10 μg/ml UIC2-A647 mAb for another 30 min at 37°C. Following antibody labeling, samples were washed 3 times with ice-cold FBS-PBS and re-suspended in ice-cold FBS-PBS containing 3 μg/ml PI. The UIC2-A647 fluorescence intensity of the PI positive cells was measured by flow cytometry and plotted as a function of the nucleotide concentration. To determine the apparent affinity of ABCB1 to the nucleotides (KA) data points were fitted with the four-parameter Hill function, where Fmin and Fmax values are the minimum and maximum fluorescence intensities.

[4] = biological target: T1, ABCB1 quadruple mutant (S474E, E556M, G1178R, Q1180E); experiment: as above; type: cell-based
Description: as §3, §4

[5] = biological target: T2, ABCB1 E556M (catalytic glutamate mutant); experiment: as above; type: cell-based
Description: as §3, §4

ABCB1 = tested on: ABCB1; parameters: method as in PMID 11121420; settings: reported values; read-out: KM for ATP hydrolysis; cited from earlier work
wild-type ABCB1 [6] = biological target: T3, wild-type ABCB1; experiment: Hoechst 33342 and calcein-AM accumulation assay in NIH 3T3 cells (transport activity factor); type: cell-based; settings: wild-type ABCB1 expressing cells, 30 min, 37°C
Description: as §1, §2

- difference in transport activity factor between wild type and quadruple mutant [1]: two-fold difference
- intracellular accumulation / efflux by ABCB1 [1]: able to limit
- transport activity [2]: abolished transport activity
SMILES: O=C(O)CN(CC(=O)O)Cc1cc2c(cc1O)Oc1cc(O)c(CN(CC(=O)O)CC(=O)O)cc1C21OC(=O)c2ccccc21 [calcein]

SMILES: Nc1ncnc2c1ncn2[C@@H]1O[C@H](COP(=O)(O)OP(=O)([O-])OP(=O)([O-])O)[C@@H](O)[C@H]1O.[Mg+2] [MgATP]
- apparent affinity (KA) lower than reported KM (wild-type ABCB1 [3]; wild-type ABCB1, KA vs reported KM): 3–4 fold
- apparent affinity of MgATP (KA) (wild-type ABCB1 [3]; wild-type ABCB1, absence of vanadate, UIC2 binding readout, 37°C): 1.56 ± 0.46 mM
- apparent affinity for MgATP/Vi (KA) ([4]; 0.5 mM Vi): 0.038 ± 0.001 mM
- apparent affinity for MgATP (KA) ([4]; absence of Vi): 1.12 ± 0.6 mM
- apparent affinity of ATP (KA) ([5]; absence of Vi): 0.077 ± 0.02 mM
- apparent affinity of ATP (KA) with Vi ([5]; treatment with 0.5 mM Vi): 0.027 ± 0.001 mM
- Km (ABCB1): 300 to 500 µM

SMILES: CCOc1ccc(-c2nc3ccc(-c4nc5ccc(N6CCN(C)CC6)cc5[nH]4)cc3[nH]2)cc1 [Hoechst 33342]
- intracellular accumulation / efflux by ABCB1 (wild-type ABCB1 [6]): effectively prevented intracellular accumulation
- intracellular accumulation / efflux by ABCB1 ([1]; quadruple mutant expressing cells): able to limit
- difference in transport activity factor between wild type and quadruple mutant ([1]; wild type vs quadruple mutant): two-fold difference
- transport activity ([2]; E556M expressing cells): abolished transport activity
